Data: PubChem BioAssay (NCI)
“And” between values parts separate entries of the source, which are not always exact repeats. Equal entries are not always repeated.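 Assay format: 96-well plates, 48-hour exposure. GI50 marks 50% less growth. TGI marks complete inhibition of growth.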

Assays:
Test in all cases: growth of human tumour cells (NCI), 48 h
EKVX NSCLC = system: EKVX NSCLC
HCT-116 colon = system: HCT-116 colon
LXFL 529 NSCLC = system: LXFL 529 NSCLC
M19-MEL melanoma = system: M19-MEL melanoma
RXF 393 renal = system: RXF 393 renal
SK-OV-3 ovarian = system: SK-OV-3 ovarian
SNB-75 CNS = system: SNB-75 CNS
U251 CNS = system: U251 CNS
NCI/ADR-RES ovarian = system: NCI/ADR-RES ovarian
T-47D breast = system: T-47D breast

| Structure (SMILES) | GI50 (EKVX NSCLC) [µM] | TGI (EKVX NSCLC) [µM] | GI50 (HCT-116 colon) | TGI (HCT-116 colon) | GI50 (LXFL 529 NSCLC) [µM] | TGI (LXFL 529 NSCLC) [µM] | GI50 (M19-MEL melanoma) [µM] | TGI (M19-MEL melanoma) [µM] | GI50 (RXF 393 renal) [µM] | TGI (RXF 393 renal) | GI50 (SK-OV-3 ovarian) [µM] | TGI (SK-OV-3 ovarian) | GI50 (SNB-75 CNS) [µM] | TGI (SNB-75 CNS) | GI50 (U251 CNS) | TGI (U251 CNS) | GI50 (NCI/ADR-RES ovarian) [µM] | TGI (NCI/ADR-RES ovarian) [µM] | GI50 (T-47D breast) [µM] | TGI (T-47D breast) [µM] |
| --- | --- | --- | --- | --- | --- | --- | --- | --- | --- | --- | --- | --- | --- | --- | --- | --- | --- | --- | --- | --- |
| COc1c(NC(=O)CC(C)=O)[c]([Hg][O]C(C)=O)c(OC)c(Cl)[c]1[Hg][O]C(C)=O | 22.3 | 41.4 | 15.2 µM | 31.8 µM | 2.63 | 11.1 | 12.6 | 25.1 | 9.7 | 24.7 µM | 17.2 | 31.1 µM | 9.69 | 29.5 µM | 10.1 µM | 23.2 µM | – | – | – | – |
| CC(=O)C1C(=O)C(=O)N(c2ccccc2N2C(=O)C(=O)C(C(C)=O)C2=O)C1=O (stereo unspecified) | – | > 100 | – | > 100 µM | – | > 100 | – | > 100 | – | > 100 µM | – | > 100 µM | – | > 100 µM | – | > 100 µM | – | – | – | – |
| C/C(=N\NC(=O)c1ccccc1O)c1cccc(/C(C)=N/NC(=O)c2ccccc2O)n1 | 0.317 | > 100 | 5.85 µM and 0.619 µM | 66.9 µM and 28.4 µM | – | 53.1 | 11.5 | > 74 | 5.38 | 32.5 µM and 30.6 µM | 1.31 | 36.3 µM and > 100 µM | 23 | 33.5 µM and > 61.9 µM | 2.02 µM and 0.502 µM | 15.8 µM and > 100 µM | > 100 | > 100 | 2.3 | > 100 |
| CCOC(=O)N1N=NC2C3OC(C[C@@]3(C#N)OC(C)=O)[C@H]21 (stereo partly specified) | – | > 100 | – | > 100 µM | – | > 100 | – | > 100 | – | > 100 µM | – | > 100 µM | – | > 100 µM | – | > 100 µM | – | – | – | – |
| CC(=O)OCC1OC(n2c(=O)n(-c3ccccc3)c(=O)c3cc(Br)cc(Br)c32)C(OC(C)=O)C(OC(C)=O)C1OC(C)=O (stereo unspecified) | – | > 100 | – | > 100 µM | – | > 100 | – | > 100 | – | > 100 µM | – | > 100 µM | – | > 100 µM | – | > 100 µM | – | – | – | – |
| CC1(O)CC2(O)C=CC3=C(C(=O)c4cccc(O)c4C3=O)C2(O)C(=O)C1O (stereo unspecified) | – | 5.99 | – | 2.05 µM | – | 1.08 | – | 1.76 | – | 2.13 µM | – | 28.5 µM | – | 19.1 µM | – | 9.81 µM | – | 20.2 | – | 3.51 |
| CC(C)(C)OC(=O)NC1CCC[C@H]1O (stereo partly specified) | – | > 100 | – | > 100 µM | – | > 100 | – | > 100 | – | > 100 µM | – | > 100 µM | – | > 100 µM | – | > 100 µM | – | – | – | – |
| O=C(O)CCCCCO | – | > 100 | – | > 100 µM | – | > 100 | – | > 100 | – | > 100 µM | – | > 100 µM | – | > 100 µM | – | > 100 µM | – | – | – | – |
| CCc1ccc(Nc2cc(=O)[nH]c(=S)n2C)cc1 | – | > 100 | – | > 100 µM | – | > 100 | – | > 100 | – | > 100 µM | – | > 100 µM | – | > 100 µM | – | > 100 µM | – | – | – | – |
| O=C(/C=C/c1ccccc1O)c1cccnc1 | – | > 100 | – | > 100 µM | – | > 100 | – | > 100 | – | > 100 µM | – | > 100 µM | – | > 100 µM | – | > 100 µM | – | – | – | – |
